For 37 compounds, IC50, inhibition and Ki results are on record in ChEMBL document CHEMBL3727366, “Heterocyclic compounds for the treatment of stress-related conditions” (2013).

Each structure is given as a SMILES string. The source made the active and inactive calls. The rule behind the calls is not given here.

Assay [1] has as its target T1, Prolactin-releasing peptide receptor (Homo sapiens, UniProt P49683).
T1 sequence (P49683 whole entry): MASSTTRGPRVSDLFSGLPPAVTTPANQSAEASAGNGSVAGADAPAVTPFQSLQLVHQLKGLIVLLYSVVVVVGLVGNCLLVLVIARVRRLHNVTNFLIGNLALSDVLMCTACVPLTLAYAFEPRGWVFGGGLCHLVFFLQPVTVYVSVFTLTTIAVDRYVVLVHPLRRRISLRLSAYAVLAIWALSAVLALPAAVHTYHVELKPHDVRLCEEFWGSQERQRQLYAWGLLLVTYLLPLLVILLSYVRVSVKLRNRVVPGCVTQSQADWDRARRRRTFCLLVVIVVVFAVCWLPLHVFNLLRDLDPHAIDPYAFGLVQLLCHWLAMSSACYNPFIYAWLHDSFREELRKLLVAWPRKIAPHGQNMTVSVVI
In words: Antagonist activity against human GPR10 receptor expressed in HEK293 cells assessed as inhibition of PrRP-induced intracellular calcium mobilization pre-incubated for 15 mins before PrRP addition by Fluo-8 dye based fluorescence imaging plate reader method. It is filed as functional, cell-based. In general terms: Calcium flux is commonly read through the fluorescence of an indicator in the cells.

Assay [2] deals with Rattus norvegicus. The assay can be described thus: Inhibition of restraint stress-induced defecation in Wistar rat at 5 mL/kg, po dosed 1 or 2 hrs before restraint stress. The assay is classed as functional, organism-based.
The test system of assay [3] is Rattus norvegicus. In words: Inhibition of tail-pinch stress-induced feeding behavior in Wistar rat at 5 mL/kg, po dosed 1 or 2 hrs before tail-pinch stimulus. It is filed as functional, organism-based.
In assay [4] the target is T1, Prolactin-releasing peptide receptor. In words: Displacement of [3H]-PrRP from human GPR10 receptor expressed in HEK293 cell membranes incubated for 90 mins by liquid scintillation counting method. In general terms: Loss of bound radioactivity is the signal in a displacement assay; it reports binding, not function.

Usually IC50 stands for the concentration that inhibits the measured activity by half. A word on the Ki: it is a measure of affinity in units of concentration, obtained from inhibition or displacement.

As for `COc1ccc(C(=O)N2CCc3nc(N[C@@H](C)c4ccc(C(F)(F)F)cc4)n(OC)c(=O)c3C2)c(OC)n1`, the IC50 in assay [1] is 228 nM. For the same compound, the inhibition result in assay [2] and in assay [3] was “Active” each time. This compound came in with a Ki in assay [4] of 7 nM.
For the compound `COn1c(N[C@H](c2ccc(Cl)cc2)C(C)C)nc2c(c1=O)CN(C(=O)c1ccc3c(c1)CCC(=O)N3C)CC2`, the inhibition result in assay [2] and in assay [3] was “Active” each time. In assay [4], this compound registered a Ki of 24 nM.
As to `COn1c(N[C@@H](C)c2ccc(C(F)(F)F)cc2)nc2c(c1=O)CN(C(=O)c1cc3cccnc3s1)CC2`, the inhibition entry in assay [2] and in assay [3] was “Active” each time. Further, affinity in assay [4] was put at a Ki of 9 nM.
In the case of `COn1c(N[C@H](c2ccc(Cl)cc2)C(C)C)nc2c(c1=O)CN(C(=O)c1cc3ccccn3n1)CC2`, the inhibition result in assay [2] and in assay [3] was “Active” each time. In addition, the Ki in assay [4] was 13 nM.
As for `COn1c(N[C@@H](C)c2ccc(C(F)(F)F)cc2)nc2c(c1=O)CN(C(=O)COc1ccc(C#N)cc1)CC2`, the inhibition result in assay [2] and in assay [3] was “Active” each time. Besides, the Ki in assay [4] came to 6 nM.
As to `COn1c(N[C@H](c2ccc(Cl)cc2)C(C)C)nc2c(c1=O)CN(C(=O)c1cc3ccccc3cn1)CC2`, the inhibition result in assay [2] and in assay [3] was “Active” throughout. In assay [4], this compound returned a Ki of 26 nM.
Take `C[C@H](Nc1nc2c(c(=O)n1N1CCCC1)CN(C(=O)c1ccc(C#N)cc1F)CC2)c1ccc(C(F)(F)F)cc1`: in assay [1], the IC50 turned out to be 298 nM. Moreover, the inhibition entry in assay [2] and in assay [3] was “Active” in each case. Besides, the Ki in assay [4] stood at 6 nM.
Regarding `COn1c(N[C@@H](C)c2ccc(C(F)(F)F)cc2)nc2c(c1=O)CN(C(=O)COc1ccc(Cl)cc1)CC2`, in assay [1], the IC50 stood at 678 nM. Moreover, the inhibition entry in assay [2] and in assay [3] was “Active” throughout. Affinity in assay [4] was put at a Ki of 8 nM.
On to `COn1c(N[C@@H](C)C2CCCCC2)nc2c(c1=O)CN(C(=O)c1ccc(Cl)cc1)CC2`, for which the inhibition result in assay [2] and in assay [3] was “Active” throughout. This compound also had a Ki in assay [4] of 108 nM.
For the compound `CCOn1c(N[C@@H](C)c2ccc(C(F)(F)F)cc2)nc2c(c1=O)CN(C(=O)c1ccc(-c3cnco3)cc1)CC2`, in assay [1], the IC50 came out at 158 nM. Besides, the inhibition result in assay [2] and in assay [3] was “Active” in each case. The affinity in assay [4], expressed as Ki, was 20 nM.
With `CC(C)COn1c(N[C@@H](C)c2ccc(C(F)(F)F)cc2)nc2c(c1=O)CN(C(=O)c1ccc(C#N)cc1F)CC2`, the inhibition result in assay [2] and in assay [3] was “Active” in each case. Moreover, the Ki in assay [4] came to 33 nM.
`COn1c(N[C@@H](C)c2ccc(C(F)(F)F)cc2)nc2c(c1=O)CN(C(=O)c1ccc(Cl)s1)CC2`: in assay [1], the IC50 turned out to be 8790 nM. Also, the inhibition entry in assay [2] and in assay [3] was “Active” throughout. Also, the affinity in assay [4] corresponds to a Ki of 15 nM.
With `COn1c(N[C@@H](C)C2CCCCC2)nc2c(c1=O)CN(C(=O)c1ccc(C#N)cc1F)CC2`, the inhibition result in assay [2] and in assay [3] was “Active” in each case. In assay [4], this compound gave a Ki of 56 nM.
On to `CCOn1c(N[C@@H](C)c2ccc(C(F)(F)F)cc2)nc2c(c1=O)CN(C(=O)c1ccc(Cl)cc1)CC2`, for which the IC50 in assay [1] is 3710 nM. Also, the inhibition result in assay [2] and in assay [3] was “Active” each time. The Ki in assay [4] came to 25 nM.
Consider `COn1c(N[C@@H](C)c2ccc(C(F)(F)F)cc2)nc2c(c1=O)CN(C(=O)c1cc3ccccc3s1)CC2`, for which, in assay [4], the affinity, expressed as Ki, was 15 nM.
On to `COn1c(N[C@@H](C)c2ccc(C(F)(F)F)cc2)nc2c(c1=O)CN(C(=O)c1ccc(Cl)o1)CC2`, for which the inhibition entry in assay [2] and in assay [3] was “Active” throughout. In assay [4], this compound gave a Ki of 48 nM.
Regarding `CCOn1c(N[C@@H](C)c2ccc(C(F)(F)F)cc2)nc2c(c1=O)CN(C(=O)c1ccc(C#N)cc1)CC2`, in assay [1], the IC50 worked out at 156 nM. Besides, the inhibition entry in assay [2] and in assay [3] was “Active” in each case. In addition, the affinity in assay [4] corresponds to a Ki of 11 nM.
Take `C[C@H](Nc1nc2c(c(=O)n1N1CCOCC1)CN(C(=O)c1ccc(C#N)cc1F)CC2)c1ccc(C(F)(F)F)cc1`: the concentration for half-maximal inhibition (IC50) in assay [1] came out at 187 nM. Further, the inhibition entry in assay [2] and in assay [3] was “Active” throughout. Also, affinity in assay [4] was put at a Ki of 3 nM.
On to `COn1c(N[C@@H](C)c2ccc(C(F)(F)F)cc2)nc2c(c1=O)CN(C(=O)c1cc(-c3cccs3)n(C)n1)CC2`, for which the inhibition result in assay [2] and in assay [3] was “Active” throughout. Also, in assay [4], the affinity, expressed as Ki, was 20 nM.
As to `COn1c(N[C@@H](C)c2ccc(C(F)(F)F)cc2)nc2c(c1=O)CN(C(=O)/C=C/c1ccc(Cl)cc1)CC2`, the IC50 in assay [1] worked out at 5790 nM. Besides, the inhibition entry in assay [2] and in assay [3] was “Active” each time. In assay [4], the Ki stood at 12 nM.
As for `CCOn1c(N[C@@H](C)c2ccc(C(F)(F)F)cc2)nc2c(c1=O)CN(C(=O)c1ccc(C#N)cc1F)CC2`, the IC50 in assay [1] is 227 nM. Moreover, the inhibition entry in assay [2] and in assay [3] was “Active” throughout. This compound also returned a Ki in assay [4] of 5 nM.
Consider `CCOn1c(N[C@@H](C)c2ccc(C(F)(F)F)cc2)nc2c(c1=O)CN(C(=O)c1cc3cccnc3s1)CC2`, for which the IC50 in assay [1] worked out at 1680 nM. In addition, the inhibition entry in assay [2] and in assay [3] was “Active” throughout. In addition, in assay [4], the Ki was determined as 17 nM.
On to `COn1c(N[C@@H](C)c2ccc(C(F)(F)F)cc2)nc2c(c1=O)CN(C(=O)c1ccc(C)s1)CC2`, for which the IC50 in assay [1] is 1130 nM. In addition, the inhibition entry in assay [2] and in assay [3] was “Active” each time. Also, the Ki in assay [4] was 10 nM.
Take `COn1c(N[C@@H](C)c2ccc(C(F)(F)F)cc2)nc2c(c1=O)CN(C(=O)c1ccc(C)c(F)c1)CC2`: the inhibition result in assay [2] and in assay [3] was “Active” in each case. In assay [4], this compound had a Ki of 8 nM.
Turning to `COn1c(N[C@@H](C)c2ccc(C(F)(F)F)cc2)nc2c(c1=O)CN(C(=O)c1ccc(C)c(C)c1)CC2`, the IC50 in assay [1] turned out to be 1030 nM. Moreover, the inhibition result in assay [2] and in assay [3] was “Active” each time. Moreover, the Ki in assay [4] was found to be 4 nM.
`COc1ccc2oc(C(=O)N3CCc4nc(N[C@@H](C)c5ccc(C(F)(F)F)cc5)n(OC)c(=O)c4C3)cc2c1`: the inhibition result in assay [2] and in assay [3] was “Active” throughout. In assay [4], this compound yielded a Ki of 14 nM.
As for `COn1c(N[C@@H](C)c2ccc(C(F)(F)F)cc2)nc2c(c1=O)CN(C(=O)CCc1ccc(Cl)cc1)CC2`, in assay [1], the IC50 was 3900 nM. In addition, the inhibition entry in assay [2] and in assay [3] was “Active” in each case. In assay [4], this compound had a Ki of 134 nM.
In the case of `COn1c(N[C@@H](C)c2ccc(C(F)(F)F)cc2)nc2c(c1=O)CN(C(=O)CSc1ccc(Cl)cc1)CC2`, the IC50 in assay [1] came out at 1140 nM. The inhibition result in assay [2] and in assay [3] was “Active” each time. The Ki in assay [4] came to 8 nM.
With `COn1c(N[C@@H](C)c2ccc(C(F)(F)F)cc2)nc2c(c1=O)CN(C(=O)c1ccc3c(c1)OCCO3)CC2`, the inhibition result in assay [2] and in assay [3] was “Active” in each case. Moreover, the Ki in assay [4] came to 10 nM.
On to `COn1c(N[C@@H](C)c2ccc(C(F)(F)F)cc2)nc2c(c1=O)CN(C(=O)c1cc3occc3n1C)CC2`, for which the inhibition result in assay [2] and in assay [3] was “Active” throughout. The Ki in assay [4] was determined as 10 nM.
As to `COn1c(N[C@H](c2ccc(Cl)cc2)C(C)C)nc2c(c1=O)CN(C(=O)c1ccc(-n3ccnc3)cc1)CC2`, the inhibition result in assay [2] and in assay [3] was “Active” each time. In assay [4], this compound showed a Ki of 31 nM.
As for `COn1c(N[C@H](C)C2CCCCC2)nc2c(c1=O)CN(C(=O)c1ccc(C#N)cc1F)CC2`, the inhibition result in assay [2] and in assay [3] was “Active” throughout. This compound also had a Ki in assay [4] of 61 nM.
Turning to `COn1c(N[C@H](c2ccc(Cl)cc2)C(C)C)nc2c(c1=O)CN(C(=O)c1ccc3c(c1)OCCO3)CC2`, the inhibition result in assay [2] and in assay [3] was “Active” throughout. For the same compound, the Ki in assay [4] came out at 42 nM.
As to `C[C@H](Nc1nc2c(c(=O)n1N1CCCC1)CN(C(=O)c1ccc(C#N)cc1)CC2)c1ccc(C(F)(F)F)cc1`, in assay [1], the IC50 amounted to 648 nM. For the same compound, the inhibition result in assay [2] and in assay [3] was “Active” throughout. The compound also showed a Ki in assay [4] of 10 nM.
As to `CC[C@H](Nc1nc2c(c(=O)n1OC)CN(C(=O)c1ccc(C#N)cc1F)CC2)c1ccc(C(F)(F)F)cc1`, the inhibition result in assay [2] and in assay [3] was “Active” in each case. The same compound yielded a Ki in assay [4] of 8 nM.
On to `C#CCn1c(N[C@@H](C)c2ccc(C(F)(F)F)cc2)nc2c(c1=O)CN(C(=O)c1cccc(C#N)c1)CC2`, for which the inhibition entry in assay [2] and in assay [3] was “Active” each time.
In the case of `COn1c(NC(C)c2ccc(Cl)cc2)nc2c(c1=O)CN(C(=O)COc1ccc(Cl)cc1)CC2` (single isomer, unassigned), the IC50 in assay [1] turned out to be 1180 nM. Moreover, the inhibition entry in assay [2] and in assay [3] was “Active” in each case. Besides, in assay [4], the affinity corresponds to a Ki of 15 nM.
